{
  "source": "patent US9782424B2",
  "about": "“Synergistic combination comprising avermectins and a NSAID for tumor inhibition” (Ectin Research AB, priority 2011, dated 2017)",
  "key": {"[1]": {"test_system": "urinary bladder cells (UM-UC-3)", "assay": "Morphology of cultured tumor cells, UM-UC-3", "format": "cell-based, human", "conditions": "ivermectin 100 μM, 24 hours (FIG. 6)", "protocol": "Commercially available human tumor cell lines were purchased from ATCC (ATCC/LGC-standards, Borás, Sweden). Cell lines from urinary bladder (UM-UC-3, #CRL-1749), colorectal carcinoma (Colo205, #CCL-222 and HT29, #HTB-38), prostate carcinoma (LNCaP, #CRL-1740) and breast carcinoma (ZR-75-1, #CRL-1500) were purchased and stored in liquid nitrogen. Cells were cultured in Roswell Park Memorial Institute media (RPMI-1640) or minimum essential medium with Earl's salts (EMEM) supplemented with 10% Foetal calf serum (FCS, Sigma) and cultured using a 37° C. cell culture incubator (Forma Scientific, NinoLab, Kungsbacka, Sweden) with 5% CO2 humidified atmosphere. Tumor cell lines were handled aseptically using a laminar airflow (LAF) bench (Holten 2448, Ninolab, Sweden) and stored in a liquid nitrogen tank and were initiated in culture as previously described (Falk P. Experimental models of the peritoneal environment: Effects of TGF-beta and Hyaluronan. Göteborg: University of Gothenburg; 2008). Briefly, ampoules of frozen cells were thawed by submerging into a 37° C. water bath for 45 s. Cells were resuspended in 10 ml of preheated RPMI-1640 with 10% FCS and centrifuged in 260 g for 10 min. […] Cells were regularly monitored using an inverted microscope connected to a digital photo equipment (Axiovert 25 and Axiovision, Zeiss, Carl Zeiss AG, Germany) (FIG. 1). […]"}, "[2]": {"test_system": "colorectal cells (Colo205)", "assay": "Morphology of cultured tumor cells, Colo205", "format": "cell-based, human", "protocol": "(§1) Commercially available human tumor cell lines were purchased from ATCC (ATCC/LGC-standards, Borás, Sweden). […] Briefly, ampoules of frozen cells were thawed by submerging into a 37° C. water bath for 45 s. […] With supernatant discarded, cell pellets were further resuspended with 5 ml complete medium into 25 cm^2 cell culture flasks (Cell+, Sarstedt, Nümbrecht, Germany). Tumor cells were cultured until sub-confluence and further sub-cultured with Trypsin (0.5%), EDTA (0.2%) solution (T4174, TE-10x, Sigma) in sterile sodium chloride. Culture media was changed two-three times a week. Culture flasks (Cell+, Sarstedt, Nümbrecht, Germany) and culture plates (Falcon/BD, Franklin Lakes, N.J., USA) were used for experimental set-ups. Cells were regularly monitored using an inverted microscope connected to a digital photo equipment (Axiovert 25 and Axiovision, Zeiss, Carl Zeiss AG, Germany) (FIG. 1). Described culture techniques and equipment have been used extensively in the laboratory\nThe effect of Ivermectin, selamectin, abamectin alone, or in combination with ketoconazole, albendazole, ibuprofen, diclofenac and celecoxib on the morphology of cultured human tumor cells was studied. The effect of ivermectin in the presence of increasing concentration of ivermectin was also investigated. Cells were grown into sub-confluence and then sub-cultured into 12 and 24 well plates (Sarstedt, Falcon/BD) for morphology studies, or in 96 well plates (Sarstedt, Falcon/BD) for proliferation studies."}, "[3]": {"test_system": "breast cell line (ZR-75-1)", "assay": "XTT-assay proliferation rate, breast cell line", "format": "cell-based, human", "conditions": "for Proliferation rate in per cent compared to untreated medium control: 2R-75-1 breast Ca; for Proliferation rate compared to untreated control: ZR-75-1 (Table 6)", "protocol": "as §1\n(§2) The proliferation rates of the different human tumor cell lines were studied using a method based on the conversion of a sodium salt (XTT-assay, Sigma) into a stable orange color that could be analyzed in a spectrophotometer. […] The color change was measured using a 96-well plate reader with software to calculate the absorbance at 450 nm (V-max/Softmax Pro, Molecular Devices, USA).\n(§3) Increasing concentrations of substance ivermectin was added with an 8-channel pipette (Titertek, Kem-En-Tec, Taastrup, Denmark) together with sterile pipette tips (Molecular Bioproducts, San Diego, Calif., USA). Cell cultures including active substances were incubated for 24 hours (and 96 hours). Untreated wells including culture medium only served as untreated controls. The XTT-assay substrate was added and after gentle agitation using a micro plate shaker, absorbencies at 450 and 650 nm were measured. Levels from medium were subtracted and compared with control wells, using culture medium only."}, "[4]": {"test_system": "urinary bladder cell line (UM-UC-3)", "assay": "XTT-assay proliferation rate, urinary bladder cell line", "format": "cell-based, human", "conditions": "for Proliferation rate compared to untreated medium control: UM-UC-3 (Table 3); for Proliferation rate in per cent compared to untreated medium control: UM-UC-3", "protocol": "as §1, §2, §3"}, "[5]": {"test_system": "advanced urothelial cancer with extensive metastasis", "assay": "Case observation of a patient given ivermectin", "format": "in vivo, human", "conditions": "middle age person, standard treatment dosage for Strongyloidiasis, no other medication", "from_the_text": "The present studies are based on an observation describing a middle age person suffering from an advanced urothelial cancer with extensive metastasis. Due to a tropical infection (Strongyloidiasis) this patient received the substance ivermectin as a standard treatment dosage.\nThe present studies are based on a case report describing a middle age person suffering from an advanced urothelial cancer with extensive metastasis. Due to a tropical infection this patient received the substance ivermectin. […] The reason for this is not known however a direct effect of the substance ivermectin could not be precluded."}, "[6]": {"test_system": "colorectal cell line HT29", "assay": "Morphology of cultured tumor cells, HT29", "format": "cell-based, human", "protocol": "as §1\nThe effect of Ivermectin, selamectin, abamectin alone, or in combination with ketoconazole, albendazole, ibuprofen, diclofenac and celecoxib on the morphology of cultured human tumor cells was studied. The effect of ivermectin in the presence of increasing concentration of ivermectin was also investigated. […]"}, "[7]": {"conditions": "ivermectin 10e-4 to 10e-10 mol/L (FIG. 2)"}},
  "note": "Where “and” joins values, the source holds several entries; their conditions need not be identical. Identical values can stand only once. Entries after “also recorded” stand apart in the source; their conditions may differ.",
  "data": [
    {"substance": "22,23-dihydroavermectin B1a+22,23-dihydroavermectin B1b [ivermectin]", "values": [
      {"measurement": "Effect on morphology", "setting": "[1]", "value": "affected"},
      {"measurement": "Effect on morphology", "setting": "[2]; ivermectin", "value": "affected cell structure"},
      {"measurement": "Effect on morphology", "setting": "[2]; ivermectin 10 μM", "value": "no effect"},
      {"measurement": "Decreased growth of cells, substances tested alone", "setting": "[2]; ivermectin 10 μM alone, albendazole 20 and 40 μM alone (FIG. 11)", "value": "not seen"},
      {"measurement": "Morphological effects over the concentration series", "setting": "[2]; [7]", "value": "affected even at 10e-6 mol/L"},
      {"measurement": "Proliferation rate in per cent compared to untreated medium control", "setting": "[3]; ivermectin 10e-9 mol/L", "value": "114 ± 31", "unit": "%"},
      {"measurement": "Proliferation rate in per cent compared to untreated medium control", "setting": "[3]; ivermectin 10e-8 mol/L", "value": "128 ± 30", "unit": "%"},
      {"measurement": "Proliferation rate in per cent compared to untreated medium control", "setting": "[3]; ivermectin 10e-7 mol/L", "value": "105 ± 35", "unit": "%"},
      {"measurement": "Proliferation rate in per cent compared to untreated medium control", "setting": "[3]; ivermectin 10e-6 mol/L", "value": "95 ± 37", "unit": "%"},
      {"measurement": "Proliferation rate in per cent compared to untreated medium control", "setting": "[3]; ivermectin 10e-5 mol/L", "value": "124 ± 34", "unit": "%"},
      {"measurement": "Proliferation rate in per cent compared to untreated medium control", "setting": "[3]; ivermectin 10e-4 mol/L", "value": "7±2", "unit": "%"},
      {"measurement": "Proliferation rate compared to untreated control", "setting": "[3]; IVM 1 μmol/L alone", "value": "90.0 ± 5.2", "unit": "%"},
      {"measurement": "Proliferation rate compared to untreated control", "setting": "[3]; IVM 10 μmol/L alone", "value": "60.5 ± 10.6", "unit": "%"},
      {"measurement": "Proliferation rate compared to untreated control", "setting": "[3]; IVM 100 μmol/L alone", "value": "14.4 ± 1.7", "unit": "%"},
      {"measurement": "Effect on proliferation rate compared to untreated control", "setting": "[3]; ZR-75-1, ivermectin 100 μM alone or in combination", "value": "reduced the proliferation rate"},
      {"measurement": "Proliferation rate compared to untreated medium control", "setting": "[4]; IVM 1 μmol/L alone", "value": "99 ± 1", "unit": "%"},
      {"measurement": "Proliferation rate compared to untreated medium control", "setting": "[4]; IVM 10 μmol/L alone", "value": "105 ± 3", "unit": "%"},
      {"measurement": "Proliferation rate compared to untreated medium control", "setting": "[4]; IVM 100 μmol/L alone", "value": "90±1", "unit": "%"},
      {"measurement": "Proliferation rate compared to untreated medium control", "setting": "[4]; IVM 100 μmol/L alone, listed as IVM", "value": "90 ± 1", "unit": "%"},
      {"measurement": "Proliferation rate in per cent compared to untreated medium control", "setting": "[4]; ivermectin 10e-9 mol/L", "value": "100 ± 3", "unit": "%"},
      {"measurement": "Proliferation rate in per cent compared to untreated medium control", "setting": "[4]; ivermectin 10e-8 mol/L", "value": "96 ± 5", "unit": "%"},
      {"measurement": "Proliferation rate in per cent compared to untreated medium control", "setting": "[4]; ivermectin 10e-7 mol/L", "value": "95 ± 9", "unit": "%"},
      {"measurement": "Proliferation rate in per cent compared to untreated medium control", "setting": "[4]; ivermectin 10e-6 mol/L", "value": "91 ± 3", "unit": "%"},
      {"measurement": "Proliferation rate in per cent compared to untreated medium control", "setting": "[4]; ivermectin 10e-5 mol/L", "value": "34±8% and 34 ± 6%"},
      {"measurement": "Proliferation rate in per cent compared to untreated medium control", "setting": "[4]; ivermectin 10e-4 mol/L", "value": "34±3", "unit": "%"},
      {"measurement": "Clinical outcome of the urothelial cancer", "setting": "[5]", "value": "all the clinical signs of the urothelial cancer disappeared; also recorded: treated both the tropical infection and the urothelial cancer"},
      {"measurement": "Effect on morphology", "setting": "[6]; ivermectin 100 μM", "value": "affected"},
      {"measurement": "Morphological effects over the concentration series", "setting": "[6]; [7]", "value": "not morphologically affected even at the highest concentration"}
    ]}
  ]
}
